The text below walks through data of patent US12478607B2, “Compounds useful for inhibiting BFL1 and their use in therapy” (CHILDREN'S HOSPITAL MEDICAL CENTER, priority 2019, dated 2025).

For one data set, the target named is BCL2A1 (purified A1) (Mus musculus (Mouse), UniProt Q07440). The data set can be described thus: differential scanning fluorimetry (DSF) thermal shift assay. The conditions noted are these: 100 μM compound, 4.4 μM A1, triplicate; for ΔTm at 100 µM: read-out: Average Tm Shift. It is filed as binding, murine. The source says: Thermal shift assays and fluorescence polarization competition assays were used to identify compounds that bind to BCL2A1/BFL1. Compounds were first tested for binding to BCL2A1 using differential scanning fluorimetry (DSF) thermal shift assays. DSF measures the midpoint temperature (Tm) for thermal denaturation of proteins; typically ligand binding stabilizes the protein fold, resulting in an increased Tm. During DSF experiments, all compounds that contributed to an increase in Tm that corresponded to at least three standard deviations from the mean were included in further assays.
100 μM of each compound was applied to purified A1 at 4.4 μM in triplicate. Sypro Orange dye was added at a final dilution of 1:1000 to protein- and compound-containing wells. An Applied Biosystems StepOnePlus was used to perform Differential Scanning Fluorimetry (DSF) by elevating the temperature from 20° C. to 99° C. and measuring fluorescence at every half degree C. Melting temperature was recorded as the maximum of the first derivative, indicating half of the protein population was unfolded.
(In general: In DSF a fluorescence change marks the thermal transition of the protein.)

Data set [1] addresses T1, BCL2A1 (A1) (Mus musculus (Mouse), UniProt Q07440). Description: single high-dose fluorescence polarization (FP) assay, BCL2A1-NOXA interaction. The class given is binding, murine. The note with it: 100 μM compound, 3 μM A1, 375 nM labeled mNOXA. How it is done: (§1) These assays were carried out using fluorescently labeled NOXA peptide which binds within the BH3-binding groove. The FP assay measures the tumbling rate of the labeled NOXA peptide as a proxy for inhibition of BH3 binding using a competition-based approach. When NOXA is bound to BCL2A1, its rate of tumbling is low (and FP is high), whereas an effective inhibitor compound will displace NOXA, causing a fast rate of tumbling (and low FP value). The initial single high dose assay was performed with each compound using […] with BCL2A1 and FITC-NOXA, to observe the relative inhibition of the BCL2A1-NOXA interaction. Small molecules that deviated by three or more standard deviations from the control mean towards inhibition of binding were selected for further analysis. These compounds and any that were three standard deviations or more above the thermal shift controls in the DSF assays were tested in an FP dose-response experiment. […] The average thermal shift (Tm shift) in the DSF assay, along with the percentage of bound Noxa peptide from the single high dose FP assay are given below in Table 2 for each of these compounds. The first two compounds in Table 2 are reference compounds.
(§2) Compounds were additionally tested for specificity of binding by displacement of FITC-labeled mouse NOXA (mNoxa; Peptide 2.0) peptide via fluorescence polarization assay (FP). FP assays were performed in two steps: single-point high-concentration compounds and dose response of fluorescence polarization hits. A1 was added at 3 μM to 100 μM of each compound in 20 mM Tris pH 7, 500 mM NaCl, 0.005% Tween-20 buffer. After addition of 375 nM labeled mNOXA, 96-well plates were incubated overnight at 20° C. in the dark to achieve equilibrium before fluorescence polarization was measured with a Biotek Synergy H2. Autofluorescent compounds and fluorescent quenching compounds were corrected via ratiometric correction as described by Shapiro et al., 2009.
In general terms: Polarisation of emitted light reports the rotation of a fluorescent probe.

Data set [2] addresses T1, BCL2A1 (A1). Description: dose-response fluorescence polarization (FP) assay, displacement of FITC-labeled mNOXA peptide. It is filed as binding, murine. The conditions noted are these: 3 μM A1, 375 nM FITC-labeled mNOXA, overnight 20° C., triplicate. How it is done: as §1, §2
Dose response curves were measured by adding 3 μM A1 to a serial two-fold dilution series of each compound ranging from 400 μM to 781 nM in 20 mM Tris pH 7, 500 mM NaCl, 0.005% Tween-20 buffer. Some compounds were further tested to assess the accuracy of these two-fold dilutions with serial 1.33-fold dilutions. A1, compounds, buffer and lastly, 375 nM FITC-labeled mNOXA were added to each well and incubated in the dark at 20° C. overnight to achieve equilibrium, followed by measurement of polarization. All dose responses were performed in triplicate.

For data set [3], the system named is wild-type activated primary murine T cells (splenocytes). The data set can be described thus: in vitro apoptosis assay, wild-type activated primary murine T cells. The class given is cell-based. The note with it: Mus musculus, T-cell, 24 hours, trypan blue live/dead count. An excerpt:
(§3) We further tested the biological activity of the compounds using an in vitro apoptosis assay. Primary murine splenocyte cells were used as the model system. Single cell suspensions were generated from the spleens of either wild-type (WT) mice or mice having a genetic “knock-out” of the Bax and Bak genes, resulting in Bax/Bak deficient mice (Bax/Bak KO) which lack the core machinery of the intrinsic apoptotic pathway. Mice deficient in Bax/Bak are unable to undergo intrinsic apoptosis due to the lack of the pro-apoptotic Bax and Bak proteins in the pathway.
(§4) Purified cells were cultured on anti-CD3 coated (3 μg/mL, coated overnight, Biolegend, San Diego, CA) six-well plates in the presence of soluble anti-CD28 (2 μg/mL, Bio X Cell, West Lebanon, NH) and IL-2 (10 ng/mL, R&D Systems, Inc., Minneapolis, MN) in RPMI media (Life Technologies, Carlsbad, CA) for 24 hours at 37° C. Cells were then washed and cultured again in IL-2 (10 ng/mL) for 24 hours at 37° C. Cells were harvested and cultured for 24 hours on anti-CD3 coated 96-well plates at 500,000 cells per well with 2 μg/mL soluble anti-CD28, 10 ng/mL IL-2, 0.125 μg purified anti-mouse FasL (Biolegend, San Diego, CA), and varying concentrations of inhibitor compounds. Cells were then harvested and live and dead cells enumerated by trypan blue staining using the TC20 automated cell counter (Bio-Rad Laboratories, Des Plaines, IL).

In data set [4] the test system is T cells from Bax/Bak-deficient mice (Bax/Bak KO). Description: in vitro apoptosis assay, Bax/Bak-deficient murine T cells. It is filed as cell-based, mouse.
Excerpt: as §3, §4

As usually defined, the IC50 is the concentration that gives 50% inhibition. What is called EC50 is the concentration giving half of the maximal effect.

Chain of BCL2A1 (purified A1) (Q07440 whole entry): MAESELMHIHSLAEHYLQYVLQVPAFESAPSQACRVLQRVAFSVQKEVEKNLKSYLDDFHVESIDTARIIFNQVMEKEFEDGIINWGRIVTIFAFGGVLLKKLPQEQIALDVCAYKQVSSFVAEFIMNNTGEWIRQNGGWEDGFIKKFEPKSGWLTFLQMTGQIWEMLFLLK
T1 sequence (Q07440 whole entry): as above

On to `Cc1cc(N=Nc2ccc(N=Nc3c(O)c(S(=O)(=O)O)cc4cc(S(=O)(=O)O)ccc34)cc2C)ccc1N=Nc1ccc2cc(S(=O)(=O)O)cc(S(=O)(=O)O)c2c1` [REF 1, reference compound], for which the “Average Tm Shift” value on BCL2A1 (purified A1) stood at 1.92 °C.
For `CCN(CC)CCNc1ccc(C)c2sc3ccccc3c(=O)c12` [Compound 1.002], on BCL2A1 (purified A1), the ΔTm at 100 µM came out at 38.8 °C. At BCL2A1 (A1) [1], the “% Bound Noxa (from high-dose FP)” value is 4.5%. Further, the IC50 on BCL2A1 (A1) [2] was 70.1 µM.
Consider `Cc1ccc(NCCNCC(O)CO)c2c(=O)c3ccccc3sc12` (stereo not shown) [Compound 1.004], for which the ΔTm at 100 µM on BCL2A1 (purified A1) was -0.6 °C. The 50% inhibitory concentration (IC50) on BCL2A1 (A1) [2] came out at 300 µM.
`O=C(COc1c(Cl)cc(Cl)c2ccccc12)NC1c2ccccc2Oc2ccccc21` [Compound 1.006]: the ΔTm at 100 µM on BCL2A1 (purified A1) is 19.2 °C. In addition, the “% Bound Noxa (from high-dose FP)” value on BCL2A1 (A1) [1] is listed as 70.39%. In addition, at BCL2A1 (A1) [2], the IC50 worked out at 48.5 µM.
On to `CCN(CCNc1ccc(C)c2sc3ccccc3c(=O)c12)CC(C)(C)O` [Compound 1.003], for which, on BCL2A1 (purified A1), the ΔTm at 100 µM is -1.43 °C. Moreover, the “% Bound Noxa (from high-dose FP)” value at BCL2A1 (A1) [1] came to 51.13%. Besides, on BCL2A1 (A1) [2], the IC50 is 103 µM.
For the molecule `Cc1ccc(NC(=O)c2cc3ccccc3c(N=Nc3cc(S(=O)(=O)O)ccc3O)c2O)c(C)c1` [REF 2, reference compound], the “Average Tm Shift” value on BCL2A1 (purified A1) is −30.75 °C. Moreover, the “% Bound Noxa (from high-dose FP)” value on BCL2A1 (A1) [1] amounted to 1.2%.
As for `CCN(CC)CC(O)CNc1ccc(C)c2sc3ccccc3c(=O)c12` (stereo not shown) [Compound 1.001], the ΔTm at 100 µM on BCL2A1 (purified A1) stood at 0.49 °C. The “% Bound Noxa (from high-dose FP)” value at BCL2A1 (A1) [1] worked out at 41.48%. Besides, the IC50 at BCL2A1 (A1) [2] is 49.1 µM. In addition, the concentration for a half-maximal effect (EC50) was approximately 3 µM in data set [3] and 20 to 30 µM in data set [4] (Mus musculus, T-cell, Bax/Bak-deficient T cells, 24 hours, trypan blue live/dead count, read-out: EC50 of cell death). In data set [4] (Bax/Bak-deficient versus wild-type T cells), the “EC50 fold higher in Bax/Bak-deficient cells than in wild-type cells” value was “about 10 fold”.
As for `Cc1ccc(NCCNCC(C)(C)O)c2c(=O)c3ccccc3sc12` [Compound 1.005], at BCL2A1 (purified A1), the ΔTm at 100 µM was -0.85 °C. Besides, at BCL2A1 (A1) [2], the concentration for half-maximal inhibition (IC50) was 333 µM.
